A short description of data set [1]: Pharmacokinetic test in beagle dogs. The format is in vivo. The following applies: for half-life: read-out: T½ (converted). On the procedure:
8.1 Experimental animals: Male beagle dogs, about 8-11 kg, 6 beagle dogs/compound, purchased from Beijing Marshall Biotechnology Co., Ltd.
8.2 Experimental method: On the day of the experiment, 6 beagle dogs were randomly grouped according to their body weights. The animals were fasted with water available for 12 to 14 h one day before the administration and were fed 4 h after the administration. Administration was carried out according to Table 10.

In data set [2] the target is PDE4D2 (Homo sapiens (Human), UniProt Q08499). Put plainly: Effect of compounds on PDE4D2 activity (fluorescence polarization kit). In kind it is biochemical. On the procedure:
FP was usually represented by mP value.
[formula] • I∥ (S520): fluorescence intensity in parallel direction • I⊥ (P520): fluorescence intensity in perpendicular direction • G: G factor=1
[formula] • mP(sample): mP of the test compound in a reaction well • mP(negative control): mP in the negative control well • mP(positive control): mP in the positive control well
According to the calculated inhibition rate at each concentration, the IC50 value of each compound was calculated by GraphPad Prism 8 software.

Data set [3] concerns human peripheral blood mononuclear cells (TNF-α release). Kind of data set: Inhibition of LPS-induced TNF-α release from human peripheral blood mononuclear cells in vitro. The format is cell-based. As to conditions: 4 h; for IC50: read-out: Re IC50; for Emax: read-out: Max inhibition (%). On the procedure: 5. Detection of Inhibitory Activity of Compounds on the Release of Tumor Necrosis Factor-α (TNF-α) from Human Peripheral Blood Mononuclear Cells Induced by Lipopolysaccharide (LPS) In Vitro
The concentration of hPBMC cells was adjusted to 0.25×10^6 cells/mL with RPMI1640 medium and inoculated into a 96-well plate in an amount of 50000 cells per well. […] Incubation was carried out for 4 h in an incubator at 37° C. and 5% CO2. The cell supernatant was collected, and the content of TNF-α in the supernatant sample was detected by human TNF-α Elisa quantitative test kit (Sino Biological, Cat #KIT10602). The IC50 value was calculated using GraphPad Prism software.

For data set [4], the target named is PDE4B2 (Homo sapiens (Human), UniProt Q07343). Kind of data set: Effect of compounds on PDE4B2 activity (fluorescence polarization kit).
PDE4B2, sequence (Q07343 other isoform, or with tags, fused parts or gaps): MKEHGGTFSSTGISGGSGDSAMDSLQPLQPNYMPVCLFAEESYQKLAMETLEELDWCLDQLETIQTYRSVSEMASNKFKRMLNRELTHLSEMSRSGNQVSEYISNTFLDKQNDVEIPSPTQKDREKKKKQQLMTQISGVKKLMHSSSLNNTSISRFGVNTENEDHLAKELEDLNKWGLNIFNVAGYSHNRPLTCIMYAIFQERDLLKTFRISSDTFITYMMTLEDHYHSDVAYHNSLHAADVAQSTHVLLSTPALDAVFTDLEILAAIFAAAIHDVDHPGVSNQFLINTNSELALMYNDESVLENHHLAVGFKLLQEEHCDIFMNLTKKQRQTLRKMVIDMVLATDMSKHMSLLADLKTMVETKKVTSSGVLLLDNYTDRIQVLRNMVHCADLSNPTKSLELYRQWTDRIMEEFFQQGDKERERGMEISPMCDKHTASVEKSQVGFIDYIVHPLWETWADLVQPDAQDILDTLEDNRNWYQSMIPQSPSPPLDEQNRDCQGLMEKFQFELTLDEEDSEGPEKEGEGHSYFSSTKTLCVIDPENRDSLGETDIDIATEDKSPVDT
Text: [formula] • I∥ (S535): fluorescence intensity in parallel direction • I⊥ (P535): fluorescence intensity in perpendicular direction • G: G factor=1
Data set [5] is described as follows: Pharmacokinetic test in mice. The format is in vivo, ICR mice. The following applies: for half-life: read-out: T½ (converted). On the procedure:
6.1 Experimental animals: Male ICR mice, 20-25 g, 6 mice/compound, purchased from Chengdu Ddossy Experimental Animals Co., Ltd.
6.2 Experiment design: On the day of the experiment, 6 ICR mice were randomly grouped according to their body weights. The animals were fasted with water available for 12 to 14 h one day before the administration and were fed 4 h after the administration.

Setting [6] is: male, iv, beagle dog plasma, i.v. 1 mg/kg.
Where [7] appears, read: male, po, beagle dog plasma, i.g. 3 mg/kg.
Where [8] appears, read: Homo sapiens, PBMC, hPBMC, 100 ng/mL LPS.
[9] abbreviates: male, ICR, iv, mouse plasma, i.v. 2.5 mg/kg.
The mark [10] stands for this setting: male, ICR, po, mouse plasma, i.g. 10 mg/kg.
[11] abbreviates: relative IC50, hPBMC, 100 ng/mL LPS.

Where two headings read alike, the source gives them in different places.

PDE4D2, sequence (Q08499 303-809, change not shown): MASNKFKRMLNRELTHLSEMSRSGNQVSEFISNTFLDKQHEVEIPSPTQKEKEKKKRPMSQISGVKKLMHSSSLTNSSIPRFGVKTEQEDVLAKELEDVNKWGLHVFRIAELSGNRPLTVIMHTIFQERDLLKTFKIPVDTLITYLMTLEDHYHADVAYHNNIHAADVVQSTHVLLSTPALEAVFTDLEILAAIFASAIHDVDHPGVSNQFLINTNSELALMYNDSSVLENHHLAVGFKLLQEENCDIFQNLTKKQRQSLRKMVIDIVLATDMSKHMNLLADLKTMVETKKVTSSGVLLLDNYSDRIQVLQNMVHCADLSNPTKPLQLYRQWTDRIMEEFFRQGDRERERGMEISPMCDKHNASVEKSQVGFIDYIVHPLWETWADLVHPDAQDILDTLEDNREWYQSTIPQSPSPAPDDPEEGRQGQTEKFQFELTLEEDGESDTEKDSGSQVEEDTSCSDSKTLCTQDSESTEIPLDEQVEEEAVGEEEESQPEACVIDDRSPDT

`CC(C)(COC(N)=O)Nc1nc(N2CC=C(c3ncc(Cl)cn3)CC2)nc2c1[S@+]([O-])CC2` [Compound 51]: the F in data set [1] (beagle dog, i.g. 3 mg/kg) is reported as 74.9 ± 11%; in data set [5] (mouse, i.g. 10 mg/kg), >98%. Also, the AUC(0-t) in data set [1] (setting [6]) came out at 4990 ± 239 ng·h/mL; in data set [1] (setting [7]) it was 11200 ± 1710 ng·h/mL; in data set [5] (setting [9]) it was 5420 ± 926 ng·h/mL; in data set [5] (setting [10]), 30100 ± 5360 ng·h/mL. In addition, the clearance in data set [1] (setting [6]) came to 3.06 ± 0.18 mL/min/kg; in data set [5] (setting [9]), 7.81 ± 1.4 mL/min/kg. For the same compound, the half-life in data set [1] (setting [6]) is 12.8 ± 3.8 h; in data set [1] (setting [7]), 16.1 ± 5.5 h; in data set [5] (setting [9]) it was 2.82 ± 0.23 h; in data set [5] (setting [10]), 3.33 ± 0.58 h. For the same compound, the Vd in data set [1] (male, iv, beagle dog plasma, i.v. 1 mg/kg, read-out: Vdss) was determined as 3.08 ± 0.61 L/kg; in data set [5] (male, ICR, iv, mouse plasma, i.v. 2.5 mg/kg, read-out: Vdss), 1.29 ± 0.039 L/kg. For the same compound, the IC50 in data set [2] is < 10 nM; in data set [3] (Homo sapiens, PBMC), < 10 nM; in data set [4], < 10 nM. Also, the Emax in data set [3] (setting [8]) was determined as 69%.
For the compound `COC(=O)NCC1(Nc2nc(N3C[C@H]4CC(c5ncc(Cl)cn5)=C[C@H]4C3)nc3c2[S@+]([O-])CC3)CCC1` [Compound 73-2], the IC50 in data set [2] is 10 to 50 nM; in data set [3] (Homo sapiens, PBMC), < 10 nM; in data set [4], < 10 nM. Further, the Emax in data set [3] (setting [8]) was determined as 67.9%.
`[O-][S@+]1CCc2nc(N3CC4CN(c5ccc6c(c5)CC6)CC4C3)nc(Nc3cccc(F)c3)c21` (some centres unmarked) [Compound 76-1]: the IC50 is 10 to 50 nM in data set [2], 10 to 50 nM in data set [3] (setting [11]) and < 10 nM in data set [4] (read-out: PDE4B2 IC50). Also, the “Max inhibition (%)” value in data set [3] (hPBMC, 100 ng/mL LPS) amounted to 74.65%.
As to `NCC1(Nc2nc(N3CC=C(c4nc5ccccc5s4)CC3)nc3c2[S@+]([O-])CC3)CCC1` [Compound 78], the IC50 in data set [2] fell in the range of 10 to 50 nM; in data set [3] (Homo sapiens, PBMC), 10 to 50 nM; in data set [4], 10 to 50 nM. The Emax in data set [3] (setting [8]) stood at 77.4%.
Take `COC(=O)NCC1(Nc2nc(N3CC=C(c4nc5ccccc5s4)CC3)nc3c2[S@+]([O-])CC3)CCC1` [Compound 79]: the IC50 was < 10 nM in data set [2]; 10 to 50 nM in data set [3] (Homo sapiens, PBMC); < 10 nM in data set [4]. The Emax in data set [3] (setting [8]) stood at 65.5%.
`[O-][S@+]1CCc2nc(N3CC=C(c4ncc(Cl)cn4)CC3)nc(Nc3ccnc(F)c3)c21` [Compound 85-1]: the IC50 in data set [2], in data set [3] (setting [11]) and in data set [4] (read-out: PDE4B2 IC50) was < 10 nM in each case. The “Max inhibition (%)” value in data set [3] (hPBMC, 100 ng/mL LPS) was determined as 71.38%.
Turning to `COC(=O)NCC(C)(C)Nc1nc(N2CC=C(c3ncc(Cl)cn3)CC2)nc2c1[S@+]([O-])CC2` [Compound 88], the half-inhibitory concentration (IC50) in data set [2], in data set [3] (setting [11]) and in data set [4] (read-out: PDE4B2 IC50) was < 10 nM throughout. In addition, the “Max inhibition (%)” value in data set [3] (hPBMC, 100 ng/mL LPS) turned out to be 74.9%.
Take `CNC(=O)OCC1(Nc2nc(N3CC=C(c4ncc(C5CC5)cn4)CC3)nc3c2[S@+]([O-])CC3)CCC1` [Compound 90]: the IC50 was in the range of 10 to 50 nM in data set [2]; 10 to 50 nM in data set [3] (Homo sapiens, PBMC); 10 to 50 nM in data set [4]. Further, in data set [3] (setting [8]), the Emax amounted to 69.5%.
With `C#Cc1ccc(C2=CCN(c3nc4c(c(NC5([C@H](C)O)CCC5)n3)[S@+]([O-])CC4)CC2)nc1` [Compound 95-2], the IC50 in data set [2], in data set [3] (setting [11]) and in data set [4] (read-out: PDE4B2 IC50) was < 10 nM throughout. Besides, in data set [3] (hPBMC, 100 ng/mL LPS), the “Max inhibition (%)” value worked out at 70.67%.
Take `C#Cc1ccc(C2=CCN(c3nc4c(c(NC5([C@@H](C)O)CCC5)n3)[S@@+]([O-])CC4)CC2)nc1` [Compound 95-3]: the IC50 in data set [2], in data set [3] (setting [11]) and in data set [4] (read-out: PDE4B2 IC50) was < 10 nM each time. Further, the “Max inhibition (%)” value in data set [3] (hPBMC, 100 ng/mL LPS) was found to be 81.97%.
As to `C#Cc1cnc(C2=CCN(c3nc4c(c(NC5([C@@H](C)O)CCC5)n3)[S@+]([O-])CC4)CC2)nc1` [Compound 96-1], the IC50 in data set [2] is 10 to 50 nM; in data set [3] (setting [11]), < 10 nM; in data set [4] (read-out: PDE4B2 IC50), < 10 nM. In addition, the “Max inhibition (%)” value in data set [3] (hPBMC, 100 ng/mL LPS) was 72.83%.
Regarding `C#Cc1cnc(C2=CCN(c3nc4c(c(NC5([C@H](C)O)CCC5)n3)[S@+]([O-])CC4)CC2)nc1` [Compound 96-2], the IC50 in data set [2], in data set [3] (setting [11]) and in data set [4] (read-out: PDE4B2 IC50) was < 10 nM throughout. The “Max inhibition (%)” value in data set [3] (hPBMC, 100 ng/mL LPS) was 81.63%.

Values taken from patent US20250263426A1, “PDE4B INHIBITOR AND USE THEREOF” (Xizang Haisco Pharmaceutical Co., Ltd., priority 2022, published 2025).
